This is an account of results in US7105531B2, “Tricyclic protein kinase inhibitors” (WYETH, priority 1999, dated 2006).

In turn, `COc1cc(Nc2c(C#N)cnc3cc4cc(OCCCl)c(OC)cc4cc23)c(Cl)cc1C` [Example 182, 8-(2-Chloroethoxy)-4-(2-chloro-5-methoxy-4-methylphenylamino)-7-methoxybenzo[g]quinoline-3-carbonitrile] registered a melting point of 222 to 236 °C.
The value for `N#Cc1cnc2c(oc3ccccc32)c1Oc1ccc(Cl)cc1F` [Example 89, 4-(4-Chloro-2-fluorophenoxy)-benzo[4,5]furo[3,2-b]pyridine-3-carbonitrile] was 138 to 140 °C; that for `COc1cc2cc3ncc(C#N)c(Nc4ccc(Cl)cc4Cl)c3cc2cc1OC` [Example 14, 4-(2,4-Dichloroanilino)-7,8-dimethoxybenzo[g]quinoline-3-carbonitrile] was 271 to 273 °C; that for `COc1cc2cc3ncc(C#N)c(Nc4ccc(Oc5ccccc5)c(Cl)c4)c3cc2cc1OCCN1CCOCC1` [Example 214, 4-(3-Chloro-4-phenoxyphenylamino)-8-methoxy-7-(2-morpholin-4-yl-ethoxy)benzo[g]quinoline-3-carbonitrile] was 251 to 253 °C.
With `N#Cc1cnc2c(c1Nc1cccc(Br)c1)C=C1N=CN=C1C2` [Example 37, 8-(3-Bromo-phenylamino)imidazo[4,5-g]quinoline-7-carbonitrile] the figure was 286 to 288 °C; with `COc1cc2cc3c(Nc4ccc(F)c(Cl)c4)c(C#N)cnc3cc2cc1OCCCl` [Example 185, 8-(2-Chloroethoxy)-4-(3-chloro-4-fluoroanilino)-7-methoxybenzo[g]quinoline-3-carbonitrile], 137 to 159 °C.
The value for `C=CC(=O)Nc1cccc2c1sc1c(Nc3cccc(Br)c3)c(C#N)cnc12` [Example 94, N-[4-(3-Bromoanilino)-3-cyano[1]benzothieno[3,2-b]pyridin-6-yl]acrylamide] was 286 to 287 °C; that for `COc1cc(Nc2c(C#N)cnc3cc4cc(OC)c(OC)cc4cc23)c(C)cc1Cl` was 171 to 173 °C.
`COc1cc2cc3c(Nc4ccc(Oc5ccccc5)c(Cl)c4)c(C#N)cnc3cc2cc1OCCN1CCOCC1` [Example 213, 4-(3-Chloro-4-phenoxyphenylamino)-7-methoxy-8-(2-morpholin-4-yl-ethoxy)benzo[g]quinoline-3-carbonitrile] registered a melting point of 190 to 194 °C.
With `N#Cc1cnc2cc3ccccc3cc2c1Nc1ccc(F)c(Cl)c1` [Example 4, 4-(3-Chloro-4-fluoroanilino)benzo[g]quinoline-3-carbonitrile] the figure was 257 to 259 °C; with `N#Cc1cnc2cc3cc(O)ccc3cc2c1Nc1ccc(Cl)cc1Cl` [Example 106, 4-(2,4-Dichloroanilino)-8-hydroxybenzo[g]quinoline-3-carbonitrile], 267 to 269 °C.
With `CCOc1cc2cc3c(Nc4cc(OC)c(Cl)cc4C)c(C#N)cnc3cc2cc1OCCCl` [Example 179, 8-(2-Chloroethoxy)-4-(4-chloro-5-methoxy-2-methylanilino)-7-ethoxybenzo[g]quinoline-3-carbonitrile] the figure was 129 to 130 °C.
In turn, `COc1cc(Nc2c(C#N)cnc3cc4cc(OCCCCl)c(OC)cc4cc23)c(Cl)cc1Cl` [Example 156, 8-(3-Chloropropoxy)-4-(2,4-dichloro-5-methoxyphenylamino)-7-methoxybenzo[g]quinoline-3-carbonitrile] registered a melting point of 220 to 223 °C.
Turning to `N#Cc1cnc2cc3cc(O)c(O)cc3cc2c1Nc1ccc(Cl)cc1Cl` [Example 15, 4-(2,4-Dichloroanilino)-7,8-dihydroxybenzo[g]quinoline-3-carbonitrile], the melting point was over 260 °C.
As to `COc1cc(Nc2c(C#N)cnc3c2C=C2N=C(CN4CCOCC4)N=C2C3)cc(OC)c1OC` [Example 48, 2-(4-Morpholinylmethyl)-8-(3,4,5-trimethoxyanilino)imidazo[4,5-g]quinoline-7-carbonitrile], the melting point was 258 to 260 °C (dec.).

What is called melting point is the temperature, or range, at which the solid turns liquid.
